Patent US9149038B2, “4-amino-6-(heterocyclic)picolinates and 6-amino-2-(heterocyclic)pyrimidine-4-carboxylates and their use as herbicides” (Dow AgroSciences LLC, priority 2013, dated 2015)
Read-outs that look alike come from different tables or passages of the source.

Assays:
[1] = system: Key Grass and Sedge Weeds as well as Grass Crops; experiment: Post-Emergent Test II: postemergent herbicidal activity, visual rating after 14 d (Table 8); assay type: in vivo; conditions: post-emergence, 336 h; for pest or weed control at 35 g/ha: 35 g ai/ha; for pest or weed control at 70 g/ha: 70 g ai/ha; for pest or weed control at 140 g/ha: 140 g ai/ha
Procedure, shortened: (§1)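 Visual 0-100% injury score (0 no injury, 100 complete kill) at 14 d post-spray, relative to untreated plants. Seedlings at 1st-2nd true leaf stage; track sprayer at 187 L/ha, highest rate plus ½×, ¼×, ⅛×, 1/16× serial dilutions. Subirrigated after treatment.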

[2] = system: Key Broadleaf Weed and Crop Species; experiment: Post-Emergent Test II: postemergent herbicidal activity, visual rating after 14 d (Table 7); assay type: in vivo; conditions: post-emergence, 336 h; for pest or weed control at 35 g/ha: 35 g ai/ha; for pest or weed control at 70 g/ha: 70 g ai/ha; for pest or weed control at 140 g/ha: 140 g ai/ha
Procedure, shortened: as §1

[3] = barnyardgrass (Echinochloa crus-galli), read-out: Visual Growth Reduction (%) 14 Days After Application ECHCG
[4] = giant foxtail (Setaria faberi), read-out: Visual Growth Reduction (%) 14 Days After Application SETFA
[5] = maize, corn (Zea mays), read-out: Visual Growth Reduction (%) 14 Days After Application ZEAMX
[6] = rice (Oryza sativa), read-out: Visual Growth Reduction (%) 14 Days After Application ORYSA
[7] = wheat, spring (Triticum aestivum), read-out: Visual Growth Reduction (%) 14 Days After Application TRZAS
[8] = yellow nutsedge (Cyperus esculentus), read-out: Visual Growth Reduction (%) 14 Days After Application CYPES
[9] = lambsquarters (Chenopodium album), read-out: Visual Growth Reduction (%) 14 Days After Application CHEAL
[10] = oilseed rape, canola (Brassica napus), read-out: Visual Growth Reduction (%) 14 Days After Application BRSNN
[11] = redroot pigweed (Amaranthus retroflexus), read-out: Visual Growth Reduction (%) 14 Days After Application AMARE
[12] = sunflower (Helianthus annuus), read-out: Visual Growth Reduction (%) 14 Days After Application HELAN
[13] = velvetleaf (Abutilon theophrasti), read-out: Visual Growth Reduction (%) 14 Days After Application ABUTH
[14] = wild poinsettia (Euphorbia heterophylla), read-out: Visual Growth Reduction (%) 14 Days After Application EPHHL

Work on `COC(=O)c1nc(-c2ccc(Br)c3c2OC(F)(F)O3)c(F)c(N)c1Cl` [Compound 78, Methyl 4-amino-6-(7-bromo-2,2-difluorobenzo[d][1,3]dioxol-4-yl)-3-chloro-5-fluoropicolinate] yielded a pest or weed control at 35 g/ha [1, 3] of 0 to 29%, a pest or weed control at 70 g/ha [1, 3] of 0 to 29% and a pest or weed control at 140 g/ha [1, 3] of 0 to 29%. It also gave a pest or weed control at 35 g/ha [1, 4] of 0 to 29%, a pest or weed control at 70 g/ha [1, 4] of 0 to 29% and a pest or weed control at 140 g/ha [1, 4] of 0 to 29%. For the same molecule, the pest or weed control at 35 g/ha [1, 5] was 60 to 74%, the pest or weed control at 70 g/ha [1, 5] was 60 to 74% and the pest or weed control at 140 g/ha [1, 5] was 60 to 74%. The pest or weed control at 35 g/ha [1, 6] was 0 to 29%, the pest or weed control at 70 g/ha [1, 6] was 0 to 29% and the pest or weed control at 140 g/ha [1, 6] was 0 to 29%. It also gave a pest or weed control at 35 g/ha [1, 7] of 0 to 29%, a pest or weed control at 70 g/ha [1, 7] of 0 to 29% and a pest or weed control at 140 g/ha [1, 7] of 0 to 29%. The pest or weed control at 35 g/ha [1, 8] was 0 to 29%, the pest or weed control at 70 g/ha [1, 8] was 0 to 29% and the pest or weed control at 140 g/ha [1, 8] was 0 to 29%. For the same molecule, the pest or weed control at 35 g/ha [2, 9] was 95 to 100%, the pest or weed control at 70 g/ha [2, 9] was 95 to 100% and the pest or weed control at 140 g/ha [2, 9] was 95 to 100%. The pest or weed control at 35 g/ha [2, 10] was 60 to 74%, the pest or weed control at 70 g/ha [2, 10] was 75 to 84% and the pest or weed control at 140 g/ha [2, 10] was 75 to 84%. The pest or weed control at 35 g/ha [2, 11] was 95 to 100%, the pest or weed control at 70 g/ha [2, 11] was 95 to 100% and the pest or weed control at 140 g/ha [2, 11] was 95 to 100%. The pest or weed control at 35 g/ha [2, 12] was 95 to 100%, the pest or weed control at 70 g/ha [2, 12] was 95 to 100% and the pest or weed control at 140 g/ha [2, 12] was 95 to 100%. It also gave a pest or weed control at 35 g/ha [2, 13] of 85 to 94%, a pest or weed control at 70 g/ha [2, 13] of 85 to 94% and a pest or weed control at 140 g/ha [2, 13] of 85 to 94%. For the same molecule, the pest or weed control at 35 g/ha [2, 14] was 0 to 29%, the pest or weed control at 70 g/ha [2, 14] was 0 to 29% and the pest or weed control at 140 g/ha [2, 14] was 0 to 29%.
